According to ChEMBL document CHEMBL1201862, “PubChem BioAssay data set” (2004):
Calls of active or inactive are those of the source. Rule as the data show it, for most assays here: actives have a measured EC50 and inactives only a lower limit.

How the values were obtained:
[1] = Luminescence Cell-Based Dose Response HTS to Identify Activators of Luciferase Translation or Activity in H4-C Neuroglioblastoma Cells. [Related pubchem assays: 1829 (Project Summary), 1814 (Primary HTS)]; format: functional
[2] = Luminescence Cell-Based Dose Response HTS to Identify Activators of 5'UTR Stem-Loop Driven Prion Protein mRNA Translation in H4-C Neuroglioblastoma Cells. [Related pubchem assays: 1829 (Project Summary), 1814 (Primary HTS)]; format: functional
[3] = Luminescence Cell-Based Dose Retest to Confirm Activators of 5'UTR Stem-Loop Driven Alpha-Synuclein mRNA Translation in H4 Neuroglioblastoma Cells. [Related pubchem assays (depositor defined):AID1813, AID1829]; format: functional
[4] = tested on: H4; assay: Luminescence Cell-Based Dose Response HTS to Identify Activators of 5'UTR Stem-Loop Driven Prion Protein mRNA Translation in H4 Neuroglioblastoma Cells. [Related pubchem assays: 1829 (Project Summary), 1814 (Primary HTS)]; format: functional; conditions: Homo sapiens
[5] = Luminescence Cell-Based Dose Confirmation HTS to Identify Activators of 5'UTR Stem-Loop Driven Alpha-Synuclein mRNA Translation in H4 Neuroglioblastoma Cells. [Related pubchem assays: 1829 (Project Summary), 1814 (Primary HTS)]; format: functional
[6] = target: T1, Heat shock factor protein 1 (Mus musculus, UniProt P38532); assay: HSF1 potentiators in luciferase reporter cells, confirmation, cell-based, NIH3T3, luminescence, dose retest (AID 435004); format: functional;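 also: stress induced by proteasome inhibitor MG132 added 30 min after compound; luciferase reporter driven by HSF1 response element in NIH3T3 cells; actives raise luminescence as potentiators of the MG132 stress response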
T1 sequence (P38532 whole entry): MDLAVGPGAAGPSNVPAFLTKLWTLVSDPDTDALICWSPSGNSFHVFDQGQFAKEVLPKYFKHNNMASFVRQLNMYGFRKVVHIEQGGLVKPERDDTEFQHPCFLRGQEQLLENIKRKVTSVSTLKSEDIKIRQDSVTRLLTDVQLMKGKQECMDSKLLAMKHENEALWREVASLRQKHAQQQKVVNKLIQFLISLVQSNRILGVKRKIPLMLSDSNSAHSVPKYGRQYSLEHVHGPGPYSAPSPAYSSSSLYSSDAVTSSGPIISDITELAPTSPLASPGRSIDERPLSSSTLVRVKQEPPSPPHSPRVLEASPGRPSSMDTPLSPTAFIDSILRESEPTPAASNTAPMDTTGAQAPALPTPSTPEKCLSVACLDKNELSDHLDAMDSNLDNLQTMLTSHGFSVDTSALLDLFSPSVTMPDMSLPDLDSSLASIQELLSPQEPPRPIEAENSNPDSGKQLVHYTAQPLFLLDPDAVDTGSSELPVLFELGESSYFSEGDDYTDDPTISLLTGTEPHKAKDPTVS

[7] = Luminescence Cell-Based Dose Response HTS to Identify Activators of Luciferase Translation or Activity in H4 […] Cells. [Related pubchem assays: 1829 (Project Summary), 1814 (Primary HTS)]; format: functional
[8] = target: T2, Zinc finger protein mex-5 (Caenorhabditis elegans, UniProt Q9XUB2); assay: MEX-5/TCR-2 RNA interaction inhibitors, dose response, biochemical, C. elegans, fluorescence polarization (AID 1960)
T2 sequence (Q9XUB2 whole entry): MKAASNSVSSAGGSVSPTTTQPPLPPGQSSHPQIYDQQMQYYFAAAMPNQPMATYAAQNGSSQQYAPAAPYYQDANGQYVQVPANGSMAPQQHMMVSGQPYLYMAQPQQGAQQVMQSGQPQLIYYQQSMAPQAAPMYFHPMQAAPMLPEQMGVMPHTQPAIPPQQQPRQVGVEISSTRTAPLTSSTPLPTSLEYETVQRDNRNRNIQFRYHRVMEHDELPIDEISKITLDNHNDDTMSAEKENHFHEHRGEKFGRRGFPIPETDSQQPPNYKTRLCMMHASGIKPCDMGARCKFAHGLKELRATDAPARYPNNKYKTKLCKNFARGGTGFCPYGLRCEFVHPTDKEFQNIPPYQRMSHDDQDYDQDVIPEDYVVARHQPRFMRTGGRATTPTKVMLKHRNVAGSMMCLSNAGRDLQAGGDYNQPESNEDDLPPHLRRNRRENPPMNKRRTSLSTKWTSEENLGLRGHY

[9] = target: T3, RNA-binding protein pos-1 (Caenorhabditis elegans, UniProt G5EF15); assay: inhibitors of POS-1/mex-3 RNA binding, dose response, biochemical, fluorescence polarization (AID 1964);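 also: purified POS-1 fused to maltose binding protein made in E. coli; potency of compounds blocking POS-1 binding to fluorescent RNA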
T3 sequence (G5EF15 whole entry): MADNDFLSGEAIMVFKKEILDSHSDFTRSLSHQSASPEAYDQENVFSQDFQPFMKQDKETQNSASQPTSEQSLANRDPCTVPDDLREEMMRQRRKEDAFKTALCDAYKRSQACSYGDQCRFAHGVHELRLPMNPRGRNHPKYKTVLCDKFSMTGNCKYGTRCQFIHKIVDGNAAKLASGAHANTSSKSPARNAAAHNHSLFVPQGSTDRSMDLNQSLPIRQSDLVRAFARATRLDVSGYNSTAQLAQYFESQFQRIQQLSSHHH

[10] = target: Neurotensin receptor type 1 (Homo sapiens, UniProt P30989); format: functional;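 also: Image-based confirmatory dose-response assay measuring agonist activity at NTR1; NTR1-expressing U2OS osteosarcoma cells imaged for beta-arrestin GFP spot formation; agonist potency where compounds increase beta-arrestin recruitment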
[11] = target: Scavenger receptor class B member 1 (Mus musculus, UniProt Q61009); assay: inhibitors of SR-BI mediated HDL lipid uptake, dose response, ldlA[mSR-BI] cells, fluorescence, cherry pick (AID 493194); format: functional, cell-based;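 also: cellular uptake of fluorescent DiI-labeled HDL measured as cell fluorescence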
[12] = target: Metabotropic glutamate receptor 4 (Homo sapiens, UniProt Q14833); assay: Modulation of the Metabotropic Glutamate Receptor mGluR4: Potency at human mGluR4. Modulation of intracellular Ca2+ using Fluo-4, AM, in CHO expressing recombinant receptor [Related pubchem assays (depositor defined):AID2437, AID2807]; format: functional, cell-based
[13] = target: Metabotropic glutamate receptor 4 (Rattus norvegicus, UniProt P31423); assay: Modulation of the Metabotropic Glutamate Receptor mGluR4: Rat PAM Potency. [Related pubchem assays (depositor defined):AID2437, AID2807]; format: functional
[14] = target: CAAX prenyl protease 1 (Saccharomyces cerevisiae S288c, UniProt P47154); assay: Ste24 protease inhibitors, dose response, biochemical, S. cerevisiae, plate reader, cherry-pick (AID 488815)
[15] = target: CAAX prenyl protease 2 (Homo sapiens, UniProt Q9Y256); assay: human Rce1 protease inhibitors, dose response, biochemical, yeast membranes, quenched-peptide fluorescence, cherry-pick (AID 588849)
[16] = inhibitors of SNCA 5'UTR-driven reporter translation, confirmation, H4 neuroglioma cells, luminescence (AID 1988); format: functional, cell-based
[17] = target: Trypsin (Sus scrofa, UniProt P00761); assay: porcine trypsin inhibitors, dose response, selectivity assay for Rce1 protease inhibitor project, biochemical, quenched peptide fluorescence, cherry-pick (AID 488789)
[18] = tested on: BJ; assay: cells; format: functional, cell-based; conditions: Homo sapiens
[19] = target: Luciferin 4-monooxygenase (Photinus pyralis, UniProt P08659); assay: firefly luciferase enzyme inhibitors, dose response, biochemical, luminescence (AID 1891)
[20] = tested on: BJ; assay: cytotoxicity toward BJ-TERT fibroblasts, dose response, cell-based, RAS-independent, luminescence (AID 1933); format: functional; conditions: Homo sapiens
[21] = tested on: BJ; assay: cytotoxicity toward BJ-TERT-LT-ST fibroblasts, dose response, cell-based, RAS-independent, luminescence (AID 1935); format: functional; conditions: Homo sapiens;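 also: BJ fibroblasts immortalized with TERT plus LT and ST oncogenes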
[22] = inhibitors of firefly luciferase expression or activity, dose response, H4 neuroglioma cells, luminescence (AID 1990); format: functional, cell-based
[23] = target: Cyclin-dependent kinase 5/CDK5 activator 1 (Homo sapiens, UniProt Q00535); assay: CDK5/p35 kinase inhibitors, dose response, biochemical, cherry-picked samples, set 2 (AID 504545)
[24] = Luminescence Cell-Based Dose Confirmation HTS to Identify Inhibitors of Platelet Dense Granule Release. [Related pubchem assays: 1663 (Primary HTS), 1678 (Summary of Project)]; format: functional
[25] = Luminescence Cell-Based Dose Response HTS to Identify Inhibitors of 5'UTR Stem-Loop Driven Prion Protein mRNA Translation in H4 Neuroglioblastoma Cells. [Related pubchem assays: 1827 (Project Summary), 1813 (Primary HTS)]; format: functional
[26] = cytotoxicity toward DRD oncogenic fibroblasts, dose response, cell-based, non-viral oncogenic, luminescence (AID 1934); format: functional; conditions: Homo sapiens
[27] = target: T4, CAAX prenyl protease 2 (Saccharomyces cerevisiae S288c, UniProt Q03530); format: biochemical
T4 sequence (Q03530 whole entry): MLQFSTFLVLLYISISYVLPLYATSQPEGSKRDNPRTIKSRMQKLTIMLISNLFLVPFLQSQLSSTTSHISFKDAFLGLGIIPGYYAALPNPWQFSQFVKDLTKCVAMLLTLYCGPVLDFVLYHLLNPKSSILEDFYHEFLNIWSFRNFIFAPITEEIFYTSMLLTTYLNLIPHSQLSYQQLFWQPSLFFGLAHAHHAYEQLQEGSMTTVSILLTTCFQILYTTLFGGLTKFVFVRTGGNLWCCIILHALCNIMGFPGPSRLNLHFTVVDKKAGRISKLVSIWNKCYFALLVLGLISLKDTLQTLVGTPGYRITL

[28] = inhibition of ADP-Glo detection reagents, dose response, artefact control for CDK5 inhibitor project, biochemical, luminescence, cherry-picked samples, set 2 (AID 504546); format: functional
[29] = inhibition of K1F phage lysis, E. coli UTI89, bacterial capsule biogenesis inhibitors, alamar blue (AID 488966); format: functional

Chain of Metabotropic glutamate receptor 4 (Rattus norvegicus, UniProt P31423) (P31423 whole entry): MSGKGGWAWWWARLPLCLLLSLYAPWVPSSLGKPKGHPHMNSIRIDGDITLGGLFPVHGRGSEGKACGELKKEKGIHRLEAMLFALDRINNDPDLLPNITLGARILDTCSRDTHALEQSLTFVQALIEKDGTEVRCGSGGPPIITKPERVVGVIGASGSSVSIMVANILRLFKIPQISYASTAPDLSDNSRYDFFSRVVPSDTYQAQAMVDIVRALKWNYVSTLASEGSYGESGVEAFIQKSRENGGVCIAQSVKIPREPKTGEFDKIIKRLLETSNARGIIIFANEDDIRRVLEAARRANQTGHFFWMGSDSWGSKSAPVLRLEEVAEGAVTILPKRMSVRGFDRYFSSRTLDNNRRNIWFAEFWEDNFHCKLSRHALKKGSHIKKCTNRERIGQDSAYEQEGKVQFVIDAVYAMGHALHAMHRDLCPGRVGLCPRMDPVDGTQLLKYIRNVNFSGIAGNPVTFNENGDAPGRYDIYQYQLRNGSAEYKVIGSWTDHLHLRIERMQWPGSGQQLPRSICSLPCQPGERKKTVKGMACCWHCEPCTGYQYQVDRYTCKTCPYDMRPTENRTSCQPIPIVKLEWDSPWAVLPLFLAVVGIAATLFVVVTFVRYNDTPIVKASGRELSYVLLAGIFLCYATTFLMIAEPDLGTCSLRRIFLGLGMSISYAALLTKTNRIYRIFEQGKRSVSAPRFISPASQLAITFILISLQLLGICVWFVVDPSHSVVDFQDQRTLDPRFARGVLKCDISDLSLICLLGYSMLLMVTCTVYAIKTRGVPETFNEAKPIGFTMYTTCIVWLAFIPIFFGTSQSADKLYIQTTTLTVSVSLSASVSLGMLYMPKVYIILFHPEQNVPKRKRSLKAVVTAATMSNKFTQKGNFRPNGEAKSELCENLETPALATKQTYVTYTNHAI
Chain of Metabotropic glutamate receptor 4 (Homo sapiens, UniProt Q14833) (Q14833 whole entry): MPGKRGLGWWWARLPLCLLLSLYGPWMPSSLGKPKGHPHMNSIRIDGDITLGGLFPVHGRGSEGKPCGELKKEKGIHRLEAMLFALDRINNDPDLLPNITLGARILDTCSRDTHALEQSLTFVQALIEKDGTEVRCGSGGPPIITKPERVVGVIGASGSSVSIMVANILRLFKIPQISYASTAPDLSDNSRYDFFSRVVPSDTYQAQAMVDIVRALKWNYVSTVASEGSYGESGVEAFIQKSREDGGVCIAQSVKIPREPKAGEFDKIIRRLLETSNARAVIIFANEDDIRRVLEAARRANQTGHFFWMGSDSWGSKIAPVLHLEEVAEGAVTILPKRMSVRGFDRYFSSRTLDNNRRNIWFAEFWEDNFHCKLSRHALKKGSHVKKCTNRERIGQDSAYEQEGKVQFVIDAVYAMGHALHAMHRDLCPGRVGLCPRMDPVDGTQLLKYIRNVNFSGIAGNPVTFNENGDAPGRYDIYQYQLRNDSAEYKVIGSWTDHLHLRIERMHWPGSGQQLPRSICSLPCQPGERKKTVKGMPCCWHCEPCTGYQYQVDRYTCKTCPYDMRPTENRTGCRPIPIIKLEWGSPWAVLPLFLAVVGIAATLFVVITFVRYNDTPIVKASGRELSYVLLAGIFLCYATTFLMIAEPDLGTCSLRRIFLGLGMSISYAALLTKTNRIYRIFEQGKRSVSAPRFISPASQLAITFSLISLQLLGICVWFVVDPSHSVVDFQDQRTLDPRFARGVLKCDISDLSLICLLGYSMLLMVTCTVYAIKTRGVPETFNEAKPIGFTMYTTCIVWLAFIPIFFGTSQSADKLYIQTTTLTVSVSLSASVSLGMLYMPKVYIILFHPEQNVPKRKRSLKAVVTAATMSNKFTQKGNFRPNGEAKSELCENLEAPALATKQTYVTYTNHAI
Chain of Luciferin 4-monooxygenase (P08659 whole entry): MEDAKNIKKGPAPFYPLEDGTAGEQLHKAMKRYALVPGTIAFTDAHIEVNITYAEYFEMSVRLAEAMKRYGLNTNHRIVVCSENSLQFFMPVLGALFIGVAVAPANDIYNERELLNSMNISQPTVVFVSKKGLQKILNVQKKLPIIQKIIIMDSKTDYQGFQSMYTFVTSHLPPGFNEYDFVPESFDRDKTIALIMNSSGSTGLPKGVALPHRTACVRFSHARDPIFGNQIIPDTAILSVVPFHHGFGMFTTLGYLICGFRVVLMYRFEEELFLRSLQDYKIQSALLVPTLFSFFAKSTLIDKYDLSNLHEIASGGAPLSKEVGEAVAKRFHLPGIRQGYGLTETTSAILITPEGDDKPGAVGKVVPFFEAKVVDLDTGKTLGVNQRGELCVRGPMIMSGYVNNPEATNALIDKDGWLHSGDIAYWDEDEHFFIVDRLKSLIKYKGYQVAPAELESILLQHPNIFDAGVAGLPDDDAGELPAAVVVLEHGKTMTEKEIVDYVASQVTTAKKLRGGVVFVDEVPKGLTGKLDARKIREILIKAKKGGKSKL
Chain of Cyclin-dependent kinase 5/CDK5 activator 1 (Q00535 whole entry): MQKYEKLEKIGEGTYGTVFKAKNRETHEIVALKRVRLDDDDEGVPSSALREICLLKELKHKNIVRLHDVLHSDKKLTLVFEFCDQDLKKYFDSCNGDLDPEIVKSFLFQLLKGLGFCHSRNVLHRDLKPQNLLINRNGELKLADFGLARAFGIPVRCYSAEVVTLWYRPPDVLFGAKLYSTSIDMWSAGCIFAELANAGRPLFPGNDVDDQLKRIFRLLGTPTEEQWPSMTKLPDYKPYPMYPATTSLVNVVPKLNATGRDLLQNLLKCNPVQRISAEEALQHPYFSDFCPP
Chain of Cyclin-dependent kinase 5/CDK5 activator 1 (Q15078 whole entry, further chain): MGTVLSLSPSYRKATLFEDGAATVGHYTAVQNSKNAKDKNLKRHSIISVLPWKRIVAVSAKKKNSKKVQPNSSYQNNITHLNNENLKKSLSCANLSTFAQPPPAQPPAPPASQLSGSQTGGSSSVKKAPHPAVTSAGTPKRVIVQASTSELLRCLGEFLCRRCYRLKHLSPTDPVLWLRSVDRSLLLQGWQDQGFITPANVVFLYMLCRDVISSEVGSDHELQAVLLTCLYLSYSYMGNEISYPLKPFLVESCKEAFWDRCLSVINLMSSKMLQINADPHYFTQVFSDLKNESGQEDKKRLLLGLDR
Chain of CAAX prenyl protease 2 (Homo sapiens, UniProt Q9Y256) (Q9Y256 whole entry): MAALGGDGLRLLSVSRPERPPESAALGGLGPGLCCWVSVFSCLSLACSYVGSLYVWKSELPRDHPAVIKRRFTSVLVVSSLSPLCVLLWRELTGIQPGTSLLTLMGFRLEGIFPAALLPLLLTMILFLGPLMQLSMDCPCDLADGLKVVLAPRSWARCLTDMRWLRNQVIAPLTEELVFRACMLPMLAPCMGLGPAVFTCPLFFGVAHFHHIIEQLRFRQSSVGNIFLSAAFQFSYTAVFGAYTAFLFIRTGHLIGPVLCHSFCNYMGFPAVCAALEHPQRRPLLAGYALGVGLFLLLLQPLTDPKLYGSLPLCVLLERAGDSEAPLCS
Chain of Trypsin (P00761 whole entry): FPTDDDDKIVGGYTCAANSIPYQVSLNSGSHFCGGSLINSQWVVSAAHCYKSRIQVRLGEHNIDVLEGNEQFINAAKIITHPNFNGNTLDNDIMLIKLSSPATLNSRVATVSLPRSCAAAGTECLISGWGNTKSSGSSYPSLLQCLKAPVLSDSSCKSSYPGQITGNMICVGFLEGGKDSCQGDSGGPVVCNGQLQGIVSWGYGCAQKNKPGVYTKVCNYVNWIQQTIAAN
Chain of Scavenger receptor class B member 1 (Q61009 whole entry): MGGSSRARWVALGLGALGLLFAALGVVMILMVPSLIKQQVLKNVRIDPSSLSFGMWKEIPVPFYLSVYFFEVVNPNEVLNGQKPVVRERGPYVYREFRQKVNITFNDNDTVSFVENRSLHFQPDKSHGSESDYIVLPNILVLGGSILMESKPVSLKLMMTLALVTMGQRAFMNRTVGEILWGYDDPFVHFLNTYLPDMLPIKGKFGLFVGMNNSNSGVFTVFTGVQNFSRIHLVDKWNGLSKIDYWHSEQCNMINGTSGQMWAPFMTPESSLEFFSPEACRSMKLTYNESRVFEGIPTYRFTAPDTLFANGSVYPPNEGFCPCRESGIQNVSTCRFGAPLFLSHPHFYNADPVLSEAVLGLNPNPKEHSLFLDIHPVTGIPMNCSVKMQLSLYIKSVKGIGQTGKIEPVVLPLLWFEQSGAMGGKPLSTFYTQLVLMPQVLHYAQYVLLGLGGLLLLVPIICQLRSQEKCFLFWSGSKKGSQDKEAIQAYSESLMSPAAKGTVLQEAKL
Chain of CAAX prenyl protease 1 (P47154 whole entry): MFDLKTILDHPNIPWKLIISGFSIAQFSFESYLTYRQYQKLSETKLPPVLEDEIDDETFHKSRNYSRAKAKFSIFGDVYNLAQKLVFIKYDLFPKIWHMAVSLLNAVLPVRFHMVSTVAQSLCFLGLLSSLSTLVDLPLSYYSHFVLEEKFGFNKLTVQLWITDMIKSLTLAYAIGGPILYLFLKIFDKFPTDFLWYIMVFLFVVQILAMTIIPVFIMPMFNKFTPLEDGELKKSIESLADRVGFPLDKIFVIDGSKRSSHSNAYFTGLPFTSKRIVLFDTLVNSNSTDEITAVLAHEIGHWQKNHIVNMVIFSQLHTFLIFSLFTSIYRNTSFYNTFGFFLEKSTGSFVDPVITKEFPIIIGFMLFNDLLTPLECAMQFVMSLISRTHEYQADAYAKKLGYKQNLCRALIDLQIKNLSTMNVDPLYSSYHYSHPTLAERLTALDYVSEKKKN
Chain of Neurotensin receptor type 1 (P30989 whole entry): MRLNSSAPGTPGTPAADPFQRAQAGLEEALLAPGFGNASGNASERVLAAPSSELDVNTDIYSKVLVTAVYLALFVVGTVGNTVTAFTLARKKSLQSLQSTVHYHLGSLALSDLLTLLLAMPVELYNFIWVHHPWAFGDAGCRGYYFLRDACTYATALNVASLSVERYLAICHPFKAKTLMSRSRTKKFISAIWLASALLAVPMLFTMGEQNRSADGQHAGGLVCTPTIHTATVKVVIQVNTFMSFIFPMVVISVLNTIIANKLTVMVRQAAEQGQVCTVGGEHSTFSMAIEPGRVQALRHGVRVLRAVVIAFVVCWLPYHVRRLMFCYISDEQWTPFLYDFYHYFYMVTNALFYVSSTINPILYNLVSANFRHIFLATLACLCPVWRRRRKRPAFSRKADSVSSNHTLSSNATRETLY

Cc1cccc(NCc2nc3ccccc3n2C)c1
EC50 [1]: 1.63 µM (active) | EC50 [2]: 3.39 µM (active) | EC50 [3]: 0.752 µM (active) | EC50 [4]: 8.1 µM (active) | EC50 [5]: 0.296 µM (active) | EC50 [6]: 201 µM (active) | EC50 [7]: > 120 µM (not active)

O=C1NC(=O)C(=Cc2cn(CCOc3ccc4c(c3)OCO4)c3ccccc23)C(=O)N1
EC50 [8]: 11.9 µM (active) | EC50 [9]: 16.7 µM (active) | EC50 [10]: 4.12 µM (active)

CCc1sc(N2C(=O)C3C4CCC(C4=C(C)C)C3C2=O)nc1-c1ccccc1 (centres undefined)
AC50 [11]: 0.635 µM (active)

O=C(Nc1ccc(N2C(=O)[C@@H]3[C@H](C2=O)[C@@H]2CC[C@H]3O2)c(Cl)c1)c1ccccn1
EC50 [12]: 1.44 µM (active) | EC50 [13]: 2.29 µM (active)

Cc1ccc2nc(-c3ccccc3)cn2c1
AC50 [14]: 7.44 µM (active) | AC50 [15]: > 100 µM (inactive) | EC50 [16]: 0.717 µM (active) | AC50 [17]: 59.9 µM (active) | EC50 [18]: 9.05 µM (active) | EC50 [19]: 1.58 µM (active) | EC50 [20]: 9.54 µM (active) | EC50 [21]: > 150 µM (inconclusive) | EC50 [22]: 1.32 µM (active) | AC50 [23]: 18.6 µM (active) | EC50 [24]: 2.18 µM (active) | EC50 [25]: 8.72 µM (active) | EC50 [26]: 7.45 µM (active) | AC50 [27]: > 100 µM (inactive) | AC50 [28]: 59.3 µM (active)

O=C(Nc1nnc(/C=C/c2ccccc2)s1)c1ccco1
IC50 [29]: > 75 µM (active)
